Results from ChEMBL document CHEMBL1133868, “Synthesis of P(1)-Citronellyl-P(2)-alpha-D-pyranosyl pyrophosphates as potential substrates for the E. coli undecaprenyl-pyrophosphoryl-N-acetylglucoseaminyl transferase MurG” (Bioorg Med Chem Lett, 2001).
The source made the active and inactive calls. The calls are words filed in the database; no cut-off is given here.

System: Bacillus subtilis
Assay: Tested for antimicrobial activity against Bacillus Subtilis; Not active
Type: functional, organism-based

## CC(C)=CCC[C@@H](C)CCOP(=O)(O)OP(=O)(O)O[C@H]1O[C@@H](CO)[C@@H](O)[C@H](O)[C@@H]1O
  Activity: inactive

## CC(=O)NC1C(OP(=O)(O)OP(=O)(O)OCC[C@H](C)CCC=C(C)C)OC(CO)C(O)C1O[C@H](C)C(=O)O (some centres not stated)
  Activity: inactive
